Test: Biochemical Characterization of Cif Inhibitors: The first step in characterizing the two compounds identified by high throughput screening was to verify that the inhibition was reproducible using fresh preparations. Chemical libraries are often stored for extended periods of time, which can lead to breakdown products contributing to the assay outcome. While the inhibition observed with a fresh …

NC(Cc1cc(I)c(Oc2cc(I)c(O)c(I)c2)c(I)c1)C(=O)O (stereo unspecified) [THYROXINE]
IC50: > 100 µM

From ChEMBL document CHEMBL5727102, “Compounds and methods for inhibiting Cif virulence factor” (2019)
